Assay results: BindingDB's records for patent US20240124427 (Idorsia Pharmaceuticals, 2024)
pIC50: −log10 of the molar value.

Target: Galectin-3 (Homo sapiens, UniProt P17931)
Assay: Spectrophotometric Assay
Experimental: The inhibitory activity of compounds is determined in competitive binding assays. […] Finally, 25 μL/well of ABTS substrate is added.

Sequence of Galectin-3 (P17931 whole entry): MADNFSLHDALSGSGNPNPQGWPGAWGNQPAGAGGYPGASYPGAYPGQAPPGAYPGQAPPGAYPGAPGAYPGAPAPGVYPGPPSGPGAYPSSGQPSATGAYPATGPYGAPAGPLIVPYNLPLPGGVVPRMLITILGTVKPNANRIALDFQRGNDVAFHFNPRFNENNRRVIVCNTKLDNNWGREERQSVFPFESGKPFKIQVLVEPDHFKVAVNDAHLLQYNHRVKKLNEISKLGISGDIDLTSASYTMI

Row | SMILES | pIC50
1 | CO[C@@H]1[C@@H](n2cc(-c3cc(F)c(F)c(F)c3)nn2)[C@@H](O)[C@@H](CO)O[C@H]1C(=O)N(c1cc(Cl)cc(Cl)c1)[C@H]1COC[C@@H]1O [US20240124427, Example 4] | 7.14
2 | CO[C@@H]1[C@@H](n2cc(-c3cc(F)c(Cl)c(F)c3)nn2)[C@@H](O)[C@@H](CO)O[C@H]1C(=O)N(c1cc(Br)cc(C#N)c1)[C@H]1COC[C@@H]1O [US20240124427, Example 24] | 7.14
3 | CO[C@@H]1[C@@H](n2cc(-c3cc(F)c(F)c(F)c3)nn2)[C@@H](O)[C@@H](CO)O[C@H]1C(=O)N(c1cc(Br)cc(C#N)c1)[C@H]1COC[C@@H]1O [US20240124427, Example 7] | 7.08

Now those with a higher pIC50, led by results:

Row | pIC50 | SMILES
4 | 7.17 | CO[C@@H]1[C@@H](n2cc(-c3cc(F)c(F)c(F)c3)nn2)[C@@H](O)[C@@H](CO)O[C@H]1C(=O)N(c1cc(Br)cc(C#N)c1)[C@@H]1COC[C@H]1O [US20240124427, Example 36]
5 | 7.34 | CO[C@@H]1[C@@H](n2cc(-c3cc(F)c(Cl)c(F)c3)nn2)[C@@H](O)[C@@H](CO)O[C@H]1C(=O)N(c1cc(Br)cc(C#N)c1)[C@@H]1COC[C@H]1O [US20240124427, Example 53]
6 | 7.92 | CO[C@@H]1[C@@H](n2cc(-c3ccc(Br)c(F)c3F)nn2)[C@@H](O)[C@@H](CO)O[C@H]1C(=O)N(c1cc(Cl)cc(Cl)c1)[C@H]1CNC[C@@H]1O [US20240124427, Example 62]
